Like-named read-outs stand apart in the source and are kept apart here.
Assays:
[1] = system: 5-HT (serotonin) uptake; type: biochemical, rat (Sprague Dawley)
Description: (§1) One male rat (Sprague Dawley) weighing approx. 200-250 g was sacrificed by cervical dislocation. The brain was dissected out and the cerebellum discarded. The brain was then weighed and 10 ml ice cold sucrose (0.32M) added per gram tissue. […] The pellet was discarded and the supernatant retained (crude synaptosomal preparation).
(§2) All tubes were set up in triplicate. […] 100 μl of the prepared synaptosomal preparation was added to each tube and incubated for 5 minutes in a shaking water bath at 37° C. Any reaction was stopped by plunging the tubes into an ice water bath. ^3 H NA (10^-7 M) or ^3 H 5-HT ([…]) was added to each tube and incubated for 5 minutes in a shaking water bath at 37° C. Any reaction was stopped by plunging the tubes into an ice-water bath. Accumulated monoamines were collected using a Brandell Cell Harvester under mild vacuum. Filters were rinsed (2×) using 4 ml of ice-cold 0.9% saline. Scintillation fluid was added (4 ml/tube). Radioactivity was measured on a scintillation counter.
(§3) Non-specific values were subtracted from total values. The control was taken as 100%. Drug effects were calculated as a percentage of control inhibitor value. A graph of log of drug concentration versus % control was plotted and IC50 values were calculated by interpolation.

[2] = system: noradrenaline (NA) uptake; assay: Monoamine Uptake Inhibition Assay, noradrenaline (synaptosomal preparation); type: biochemical, rat (Sprague Dawley)
Description: as §1, §2, §3

[3] = target: T1, Acetylcholinesterase (AChE) (Rattus norvegicus, UniProt P37136); assay: biochemical; type: biochemical, Male Rats (Sprague Dawley), brain
T1 construct: The brain was removed and homogenised; from tissue; host or cells: rat brain (male Sprague Dawley), Triton X100 detergent supernatant of the EDTA-buffer pellet
T1 sequence (P37136 32-614): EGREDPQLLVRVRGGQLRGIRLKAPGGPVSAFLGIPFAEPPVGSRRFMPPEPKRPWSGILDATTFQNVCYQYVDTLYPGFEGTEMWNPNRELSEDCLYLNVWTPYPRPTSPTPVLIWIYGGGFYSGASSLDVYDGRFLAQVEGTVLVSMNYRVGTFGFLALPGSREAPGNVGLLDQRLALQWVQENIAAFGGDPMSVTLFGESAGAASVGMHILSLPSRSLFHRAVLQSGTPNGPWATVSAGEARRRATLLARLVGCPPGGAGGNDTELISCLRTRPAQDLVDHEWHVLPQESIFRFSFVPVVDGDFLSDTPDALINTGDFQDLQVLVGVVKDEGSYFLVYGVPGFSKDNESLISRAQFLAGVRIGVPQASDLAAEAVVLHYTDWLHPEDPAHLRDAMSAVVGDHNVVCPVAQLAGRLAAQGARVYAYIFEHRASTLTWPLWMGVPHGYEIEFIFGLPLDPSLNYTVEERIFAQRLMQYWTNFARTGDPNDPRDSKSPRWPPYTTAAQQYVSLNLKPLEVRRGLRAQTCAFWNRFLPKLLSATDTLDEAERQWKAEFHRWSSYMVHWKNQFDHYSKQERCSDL
Description: (i) Enzyme Source for AChE
5 Male Rats (Sprague Dawley) weighing approx 250 g were killed by CO2 overdose and cervical dislocation.
The brain was removed and homogenised (9 strokes at 840 rpm with 4 volumes of phosphate buffer pH 7.4+10 mM (EDTA) and centrifuged at 27,000 g for 30 minutes.
The supernatant was discarded and the pellet resuspended in phosphate buffer with 10 mM EDTA+1- Triton X100 (2 ml/g wet weight). The crude homogenate was centrifuged at 27,000 g for 30-40 minutes.
The pellet was discarded and the supernatant was dispensed into 0.5 ml aliquots and stored at -20° C. until required.
Phosphate Buffer (0.1M. pH 7.4)
Made up to 500 ml with distilled H2 O, pH 7.4.
0.5 ml aliquots of brain (enzyme solution) as prepared above were thawed out. 2 ml of phosphate buffer was added to each aliquot. 2 ml of the enzyme solution was incubated with 2 ml PDS for 60 minutes at 0° C. The composition of blank, control and test solutions are given below:
0.9 ml phosphate buffer (0.1 M, pH 7.4)
0.85 ml phosphate buffer (0.1M, pH 7.4)
0.05 ml acetylthiocholine (5.2 mM)
(§4) 0.8 ml phosphate buffer (0.1M, pH 7.4)
0.05 ml Acetylthiocholine 5.2 mM
Change in absorbance was measured at 30 second intervals for 3 minutes at […]. The control was taken as 100%. Inhibitor was calculated as a percentage of the control. A graph of Log of inhibitor conc. versus % control was plotted and IC5. values calculated by interpolation.

[4] = target: T2, Butyrylcholinesterase (BChE) (Equus caballus, UniProt P81908); assay: biochemical
T2 construct: purchased Sigma c-7512
T2 sequence (P81908 whole entry): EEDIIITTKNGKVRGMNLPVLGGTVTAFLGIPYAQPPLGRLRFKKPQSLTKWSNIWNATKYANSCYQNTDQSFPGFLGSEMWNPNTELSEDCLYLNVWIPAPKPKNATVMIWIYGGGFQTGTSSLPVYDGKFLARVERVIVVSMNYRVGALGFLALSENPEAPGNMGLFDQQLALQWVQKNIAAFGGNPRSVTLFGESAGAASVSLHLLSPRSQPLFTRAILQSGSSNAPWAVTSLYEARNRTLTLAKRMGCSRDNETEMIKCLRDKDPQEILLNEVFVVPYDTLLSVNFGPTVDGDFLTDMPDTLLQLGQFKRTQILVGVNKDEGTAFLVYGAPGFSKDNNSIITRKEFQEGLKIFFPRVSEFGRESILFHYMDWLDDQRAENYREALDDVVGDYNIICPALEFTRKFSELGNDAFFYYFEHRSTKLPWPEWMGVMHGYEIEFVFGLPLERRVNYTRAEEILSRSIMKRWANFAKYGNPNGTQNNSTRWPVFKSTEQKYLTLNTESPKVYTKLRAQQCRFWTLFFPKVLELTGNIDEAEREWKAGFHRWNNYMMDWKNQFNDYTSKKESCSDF
Description: The following components were utilised:
Phosphate Buffer (0.1M, pH 7.4)
Made up to 500 ml with distilled H2 O, pH 7.4
1 ml of enzyme solution (i), was incubated with 2 ml PDS for 60 minutes at 0° C.
Components of the assay blank, controls and test solutions are provided below:
0.9 ml phosphate buffer (0.1M, pH 7.4)
0.85 ml phosphate buffer (0.1 M, pH 7.4)
0.05 ml Acetylthiocholine (5.2 mM)
as §4
Control was taken as 100%. Inhibitor was calculated as a percentage of control. A graph of Log of inhibitor conc. versus % control was plotted and IC50 values calculated by interpolation.

[5] = not believed to be irreversible in nature; cited from earlier work
[6] = Table 1, form BASE, n = 5, read-out: IC50 5HT UPTAKE
[7] = Table 1, form SALT, n = 5, read-out: IC50 5HT UPTAKE
[8] = Table 1, form BASE, n = 5, read-out: IC50 NA UPTAKE
[9] = Table 1, form SALT, n = 5, read-out: IC50 NA UPTAKE
[10] = Table 1, form BASE, ±SEM, n = 5, read-out: IC50 AChE
[11] = Table 1, form SALT, ±SEM, n = 5, read-out: IC50 AChE
[12] = Table 1, form SALT, ±SEM, n = 5, read-out: IC50 BChE
[13] = Table 3, read-out: 5-HT UPTAKE INHIBITION
[14] = Table 3, read-out: NA UPTAKE INHIBITION

| Compound | IC50 [1, 6] [µM] | IC50 [1, 7] [µM] | IC50 [2, 8] [µM] | IC50 [2, 9] [µM] | IC50 [3, 10] [µM] | IC50 [3, 11] [µM] | IC50 [4, 12] [µM] | IC50 ([4]; Table 1, form BASE, ±SEM, n = 5, read-out: IC50 BChE) [µM] | 5-HT UPTAKE INHIBITION TACRINE RATIO [1] | IC50 [1, 13] [µM] | NA UPTAKE INHIBITION TACRINE RATIO [2] | IC50 [2, 14] [µM] | AChE TACRINE RATIO [3] | IC50 ([3]; Table 2, read-out: AChE IC50) [µM] | BChE TACRINE RATIO [4] | IC50 ([4]; Table 2, read-out: BChE IC50) [µM] | side effect [5] |
| --- | --- | --- | --- | --- | --- | --- | --- | --- | --- | --- | --- | --- | --- | --- | --- | --- | --- |
| COc1ccc2c(c1)CCCc1c-2nc2ccccc2c1N [Compound 1, 13-Amino-1,2 dihydro-5-methoxy[1H] benz [7] annuleno [5,4-b] quinoline] | 0.7 | 0.02 | 3.6 | 1.8 | 68.8 | 17.4 | 34.4 |  |  |  |  |  |  |  |  |  |  |
| Nc1c2c(nc3ccccc13)-c1ccccc1CC2 [Compound 3, 7 Amino-5,6-dihydro-benz-[c]-acridine] | 4.6 | 2 | 12.1 | 13.2 | 37.4 | 7.8 | 3.8 |  |  |  |  |  |  |  |  |  |  |
| COc1cccc2c1CCc1c-2nc2ccccc2c1N [Compound 4, 7-Amino-5,6-dihydro-4-methoxybenz-[c]-acridine] | 5.8 | 2.1 | 1.4 | 12.2 | 47.5 | 17.1 | 1.9 | 10.3 |  |  |  |  |  |  |  |  |  |
| Nc1c2c(nc3ccccc13)-c1ccc(Cl)cc1CC2 [Compound 5, 7-Amino-5,6-dihydro-3-chlorobenz-[c]-acridine] | 14.3 | 5.2 | 4.1 | 6.1 | 144 | 17.9 | 7.1 |  |  |  |  |  |  |  |  |  |  |
| Nc1c2c(nc3ccccc13)-c1ccccc1CCC2 [Compound 6, 8-Amino-6,7-dihydro-5H-benzo-[6, 7] cyclohepta [1,2-b] quinoline] | 4.7 | 1 |  | 1.9 | 329 | 17.5 | 4 |  |  |  |  |  |  |  |  |  |  |
| Nc1c2c(nc3ccc(F)cc13)CCC2 [Compound 11, 9-Amino-7-fluoro-2,3-dihydro-1H-cyclopenta-[b] quinoline] |  |  |  |  |  |  |  |  | 2.054 | 3.7 | 0.558 | 12 | 0.650 | 0.12 | 0.033 | 0.75 |  |
| Nc1c2c(nc3c(O)cccc13)CCC2 [Compound 12, 9-Amino-5-hydroxy-2,3-dihydro-1H-cyclopenta [b] quinoline] |  |  |  |  |  |  |  |  | 0.524 | 14.5 | 9.571 | 0.7 | 0.078 | 1 | 0.050 | 0.5 |  |
| Nc1c2c(nc3c(F)cccc13)CCC2 [Compound 13, 9-Amino-5-fluoro-2,3-dihydro-1H-cyclopenta-[1,2-b] quinoline] |  |  |  |  |  |  |  |  | 0.181 | 42 | 9.571 | 0.7 | 0.269 | 0.29 | 0.093 | 0.27 |  |
| Nc1c2c(nc3cccc(F)c13)CCC2 [Compound 14, 9-Amino-8-fluoro-2,3-dihydro-1H-cyclopenta-[b] quinoline] |  |  |  |  |  |  |  |  | 0.177 | 43 | 2.030 | 3.3 | 1.000 | 0.078 | 0.017 | 1.51 |  |
| Nc1c2c(nc3cc(F)ccc13)CCC2 [Compound 15, 9-amino-6-fluoro-2,3-dihydro-1H-cyclopenta [b] quinoline] |  |  |  |  |  |  |  |  | 0.345 | 22 | 9.571 | 0.7 | 1.219 | 0.064 | 0.610 | 0.041 |  |
| Nc1c2c(nc3cccc(Cl)c13)CCC2 [Compound 16, 9-Amino-8-chloro-2,3-dihydro-1H-cyclopenta[b]quinoline] |  |  |  |  |  |  |  |  | 0.195 | 39 | 3350.000 | 0.002 | 0.557 | 0.14 | 0.047 | 0.53 |  |
| Nc1c2c(nc3ccc(Cl)cc13)CCC2 [Compound 19, 9-Amino-7-chloro-2,3-dihydro-1H-cyclopenta-[b] quinoline] |  |  |  |  |  |  |  |  | 1.086 | 7 | 2.481 | 2.7 | 0.060 | 1.3 | 0.019 | 1.32 |  |
| Nc1c2c(nc3c(Cl)cccc13)CCC2 [Compound 22, 9-Amino-5-chloro-2,3-dihydro-1H-cyclopenta[b] quinoline] |  |  |  |  |  |  |  |  | 0.073 | 104 | 2.161 | 3.1 | 0.022 | 3.5 | 0.002 | 14.5 |  |
| Nc1c2c(nc3ccccc13)CCC2 [Compound 29, 9-Amino-2,3-dihydro-[1H ]-cyclopenta-[b]-quinoline] |  |  |  |  |  |  |  |  | 0.362 | 21 | 11.167 | 0.6 | 1.393 | 0.056 | 0.481 |  |  |
| Nc1c2c(nc3ccccc13)CCCC2 [TACRINE, reference compound] |  |  |  |  |  |  |  |  |  |  |  | 6.7 |  |  |  |  | liver damage |

— US6130228A, “Polycyclic compounds” (priority 1995, dated 2000)
